Where two headings read alike, the source gives them in different places.
Columns and labels:
active KRas = active KRas (Homo sapiens, UniProt P01116, G12C); test: In vivo target inhibition, active KRas ELISA of tumor lysates, pancreatic cancer MiaPaca-2 xenograft model; design: from tissue; host or cells: xenograft tumours grown subcutaneously in nude female mice; details: MIA PaCa-2, mouse, MiaPaca-2 model, read-out: % Inhibition of active RAS; for inhibition at 5 mg/kg: single dose 5 mg/kg; for inhibition at 10 mg/kg: single dose 10 mg/kg; for inhibition at 30 mg/kg: single dose 30 mg/kg
active KRas, sequence (P01116 1-188 isoform P01116-2 G12C): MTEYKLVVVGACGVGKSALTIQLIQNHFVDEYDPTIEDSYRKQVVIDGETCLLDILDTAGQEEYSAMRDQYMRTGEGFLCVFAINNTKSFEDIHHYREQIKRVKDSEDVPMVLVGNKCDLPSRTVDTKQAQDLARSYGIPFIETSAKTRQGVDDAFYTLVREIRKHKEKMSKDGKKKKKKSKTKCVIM
Experimental: The purpose of these assays is to evaluate in vivo target inhibition of an orally administered test compound. Human lung cancer H358 cells, or pancreatic cancer MiaPaca-2 cells, are implanted into nude mice xenograft tumor models. H358 or MiaPaca-2 cells (10×106 in a 1:1 Matrigel® mix, 0.2 mL total volume) are implanted by subcutaneous injection in hind leg of nude female mice (Harlan Laboratories). A total of 3-4 mice in each group are used for target engagement and PD study. Treatment is initiated with oral administration (gavage) of a test compound or vehicle (20% Captisol®, 25 mM phosphate, pH 2.0 in 0.2 mL) when the tumor size reaches approximately 300 mg.
For in vivo target inhibition and PD analysis, tumors are ground by mortar and pestle on dry ice and tumor fragments are added to 800 μL of lysis buffer containing 1% Triton™ X-100, 25 mM Tris pH7.5, 150 mM sodium chloride, 1 mM EDTA, and 1 mM EGTA with Halt protease and phosphatase inhibitor cocktail (Thermo Scientific, cat. no. 1861281) in lysing matrix D tubes (MP Biomedical®, cat. no. 6913-500) with one additional large bead (MP Biomedical® ¼″ ceramic sphere bead cat. no. 6540-412) per tube. Tumor fragments are homogenized in a Thermo Bio101® fast prep (FP120) at setting 4 for […] while cold for a total of 2 times. Lysates are spun at 14,000 rpm for 10 minutes at 4° C. to clarify. Protein estimation is done on the lysate supernatant using a BioRad Dc® protein assay and lysates are diluted in complete lysis/binding buffer from the Ras GTPase Chemi ELISA Kit® (Active Motif, cat. no. 52097). The active KRas ELISA is performed as follows: glutathione-coated ELISA wells are incubated with diluted RAF1-GST in complete lysis/binding buffer for 1 hour at 4° C. with gentle agitation. Wells are washed 3 times with wash buffer and 100 μg of lysates are added to each well and incubated at ambient temperature for 1 hour with mild agitation. The wells are washed an additional 3 times, then primary antibody, diluted in antibody binding buffer, is added to each well. The plates are incubated for 1 hour. The wells are washed 3 more times before adding HRP-conjugated secondary antibody, diluted in antibody binding buffer, to each well. The plates are incubated at ambient temperature for 1 hour. ELISA wells are washed 4 times, chemiluminescent reagent is added and then luminescence is read. For pERK Meso Scale Discovery ELISA, 25 μg of protein containing 0.1% SDS is used; Meso Scale Discovery Whole Cell Lysate Kit for pERK is provided by Meso Scale Discovery.
The purpose of this assay is to evaluate the does and time dependent in vivo target inhibition and pharmacodynamic effects in a pancreatic cancer model. The compound of Examples 35 is dosed at 5, 10 or 30 mg/kg in a time course experiment. After a single dose, the tumor samples are harvested at 2, 4, 8, 12 and 24 hours post doing. The tumor lysates are prepared and the inhibition of pERK and active KRas is measured as described above.

KRas G12C = KRas G12C (Homo sapiens, UniProt P01116, G12C); test: KRas G12C Probe Occupancy TR-FRET Assay; format: binding; details: n=4
KRas G12C, sequence (P01116 1-188 isoform P01116-2 G12C): as above
Text: The purpose of this assay is to measure the ability of an inhibitor to compete with a probe for binding to and covalently modifying KRas G12C at codon 12. The signal is generated by the time-resolved transfer of fluorescence between europium on an antibody bound to KRas G12C Europium-labeled Anti-Histidine Tag Antibody LanthaScreen (the Eu Anti-His antibody) and fluorescent Tracer 647 (Alexa Fluor™) bound to KRas G12C through streptavidin and a biotinylated inhibitor (the “KRas Probe”, see Preparation 223).
Inhibitors are tested in dose response format from 10 mM stocks in 100% DMSO. The Labycyte Echo® 555 is used to dilute and transfer 100 nL per well containing a 10 point, 2.8-fold serial dilution to an assay plate. […] His-tagged KRas G12C (20 nM) is added to the plates in assay buffer (20 mM Tris-HCl, pH 7.5, 0.01% TX-100, and 1 mM DTT). After 5 or 60 minutes incubation, 1 μM KRas Probe is added and allowed to covalently modify free KRas G12C for 1 hour. […] After 30 minutes, the fluorescent signal is read on an Envision™ Plate Reader (excitation at 340 nm, tracer emission (em) at […], and antibody emission at 615 nm). […] Compounds within the scope of this invention are evaluated in this assay substantially as described above.

SMILES	inhibition at 5 mg/kg (active KRas; 2 hours) [%]	inhibition at 5 mg/kg (active KRas; 4 hours) [%]	inhibition at 5 mg/kg (active KRas; 8 hours) [%]	inhibition at 5 mg/kg (active KRas; 12 hours) [%]	inhibition at 5 mg/kg (active KRas; 24 hours) [%]	inhibition at 10 mg/kg (active KRas; 2 hours) [%]	inhibition at 10 mg/kg (active KRas; 4 hours) [%]	inhibition at 10 mg/kg (active KRas; 8 hours) [%]	inhibition at 10 mg/kg (active KRas; 12 hours) [%]	inhibition at 10 mg/kg (active KRas; 24 hours) [%]	inhibition at 30 mg/kg (active KRas; 2 hours) [%]	inhibition at 30 mg/kg (active KRas; 4 hours) [%]	inhibition at 30 mg/kg (active KRas; 8 hours) [%]	inhibition at 30 mg/kg (active KRas; 12 hours) [%]	inhibition at 30 mg/kg (active KRas; 24 hours) [%]	IC50 (KRas G12C; 5 minutes incubation of inhibitor with KRas G12C) [nM]	IC50 (KRas G12C; 60 minutes incubation of inhibitor with KRas G12C) [nM]
C=CC(=O)N1CCN2C(=O)c3cc(F)c(-c4ccc(F)c5sc(N)c(C#N)c45)c(Cl)c3OCC[C@H]2C1 [Example 35, 4-[(13aS)-10-Chloro-8-fluoro-6-oxo-2-prop-2-enoyl-1,3,4,12,13,13a-hexahydropyrazino[2,1-d][1,5]benzoxazocin-9-yl]-2-amino-7-fluoro-benzothiophene-3-carbonitrile]	24.3	63.8	57	34.3	4.3	67.8	85.5	78.9	44.7	22.8	76	90.9	89	68.9	60.7	–	–
C=CC(=O)N1CCN2C(=O)c3cc(Cl)c(-c4ccc(F)c5sc(N)nc45)c(Cl)c3OCC[C@H]2C1 (atropisomer, axis not shown) [Example 1, (13aS)-9-(2-Amino-7-fluoro-1,3-benzothiazol-4-yl)-8,10-dichloro-2-prop-2-enoyl-1,3,4,12,13,13a-hexahydropyrazino[2,1-d][1,5]benzoxazocin-6-one]	–	–	–	–	–	–	–	–	–	–	–	–	–	–	–	< 15	< 15

Reference: US20230339968A1, “KRAS Gl2C INHIBITORS” (Eli Lilly and Company, priority 2019, published 2023)
